Assay results as given in PubChem BioAssay (NCI).
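Each compound was tested at five concentrations against cells in 96-well plates for 48 hours. TGI marks complete inhibition of growth.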

What was measured:
Assay in all cases: DTP human tumour cell line panel, 48 h
COLO 205 colon = system: COLO 205 colon
CCRF-CEM leukemia = system: CCRF-CEM leukemia
OVCAR-8 ovarian = system: OVCAR-8 ovarian
UACC-62 melanoma = system: UACC-62 melanoma
SF-539 CNS = system: SF-539 CNS
SN12C renal = system: SN12C renal
SF-295 CNS = system: SF-295 CNS
NCI-H23 lung = system: NCI-H23 lung
SK-MEL-2 melanoma = system: SK-MEL-2 melanoma
MALME-3M melanoma = system: MALME-3M melanoma
HL-60(TB) leukemia = system: HL-60(TB) leukemia
MDA-MB-231 breast = system: MDA-MB-231 breast
MCF7 breast = system: MCF7 breast
786-0 renal = system: 786-0 renal
SK-MEL-28 melanoma = system: SK-MEL-28 melanoma
MOLT-4 leukemia = system: MOLT-4 leukemia
KM12 colon = system: KM12 colon
NCI-H226 lung = system: NCI-H226 lung
TK-10 renal = system: TK-10 renal
SR leukemia = system: SR leukemia
NCI-H522 lung = system: NCI-H522 lung
MDA-MB-435 = system: MDA-MB-435
M14 melanoma = system: M14 melanoma
NCI-H460 lung = system: NCI-H460 lung
UACC-257 melanoma = system: UACC-257 melanoma
HCT-15 colon = system: HCT-15 colon
SF-268 CNS = system: SF-268 CNS
UO-31 renal = system: UO-31 renal
DU-145 prostate = system: DU-145 prostate
ACHN renal = system: ACHN renal
IGROV1 ovarian = system: IGROV1 ovarian
T-47D breast = system: T-47D breast
OVCAR-5 ovarian = system: OVCAR-5 ovarian
SNB-19 CNS = system: SNB-19 CNS
OVCAR-3 ovarian = system: OVCAR-3 ovarian
A549 NSCLC = system: A549 NSCLC
A498 renal = system: A498 renal
HOP-62 NSCLC = system: HOP-62 NSCLC
K-562 leukemia = system: K-562 leukemia
PC-3 prostate = system: PC-3 prostate
SK-MEL-5 melanoma = system: SK-MEL-5 melanoma
LOX IMVI melanoma = system: LOX IMVI melanoma
HCT-116 colon = system: HCT-116 colon
CAKI-1 renal = system: CAKI-1 renal
NCI/ADR-RES ovarian = system: NCI/ADR-RES ovarian
OVCAR-4 ovarian = system: OVCAR-4 ovarian
SNB-75 CNS = system: SNB-75 CNS
MDA-N = system: MDA-N
HS 578T breast = system: HS 578T breast
SW-620 colon = system: SW-620 colon
RXF 393 renal = system: RXF 393 renal
U251 CNS = system: U251 CNS
BT-549 breast = system: BT-549 breast
HCC-2998 colon = system: HCC-2998 colon
RPMI-8226 leukemia = system: RPMI-8226 leukemia
EKVX NSCLC = system: EKVX NSCLC
HT29 colon = system: HT29 colon
HOP-92 NSCLC = system: HOP-92 NSCLC
SK-OV-3 ovarian = system: SK-OV-3 ovarian

With `CCOC(=O)c1cc(C2(O)CCN(Cc3ccccc3)C2=O)c(-c2cc(C)no2)[nH]1` (centres undefined) the TGI (COLO 205 colon) was over 100 µM, the TGI (CCRF-CEM leukemia) was over 100 µM and the TGI (OVCAR-8 ovarian) was over 100 µM. For the same compound, the TGI (UACC-62 melanoma) was over 100 µM, the TGI (SF-539 CNS) was over 100 µM and the TGI (SN12C renal) was over 100 µM. It also gave a TGI (SF-295 CNS) of 78.4 µM, a TGI (NCI-H23 lung) of over 100 µM and a TGI (SK-MEL-2 melanoma) of over 100 µM. For the same compound, the TGI (MALME-3M melanoma) was over 100 µM, the TGI (HL-60(TB) leukemia) was 34.7 µM and the TGI (MDA-MB-231 breast) was over 100 µM. It also gave a TGI (MCF7 breast) of over 100 µM, a TGI (786-0 renal) of over 100 µM and a TGI (SK-MEL-28 melanoma) of over 100 µM. For the same compound, the TGI (MOLT-4 leukemia) was 41.9 µM, the TGI (KM12 colon) was over 100 µM and the TGI (NCI-H226 lung) was over 100 µM. It also gave a TGI (TK-10 renal) of over 100 µM, a TGI (SR leukemia) of over 100 µM and a TGI (NCI-H522 lung) of 43.3 µM. For the same compound, the TGI (MDA-MB-435) was over 100 µM, the TGI (M14 melanoma) was over 100 µM and the TGI (NCI-H460 lung) was over 100 µM. For the same compound, the TGI (UACC-257 melanoma) was over 100 µM, the TGI (HCT-15 colon) was over 100 µM and the TGI (SF-268 CNS) was over 100 µM. It also gave a TGI (UO-31 renal) of over 100 µM, a TGI (DU-145 prostate) of over 100 µM and a TGI (ACHN renal) of over 100 µM. For the same compound, the TGI (IGROV1 ovarian) was over 100 µM, the TGI (T-47D breast) was 74.8 µM and the TGI (OVCAR-5 ovarian) was over 100 µM. The TGI (SNB-19 CNS) was over 100 µM, the TGI (OVCAR-3 ovarian) was over 100 µM and the TGI (A549 NSCLC) was over 100 µM. The TGI (A498 renal) was over 100 µM, the TGI (HOP-62 NSCLC) was over 100 µM and the TGI (K-562 leukemia) was over 100 µM. For the same compound, the TGI (PC-3 prostate) was over 100 µM, the TGI (SK-MEL-5 melanoma) was over 100 µM and the TGI (LOX IMVI melanoma) was over 100 µM. For the same compound, the TGI (HCT-116 colon) was over 100 µM, the TGI (CAKI-1 renal) was 74.3 µM and the TGI (NCI/ADR-RES ovarian) was over 100 µM. It also gave a TGI (OVCAR-4 ovarian) of over 100 µM, a TGI (SNB-75 CNS) of 85.8 µM and a TGI (MDA-N) of over 100 µM. The TGI (HS 578T breast) was over 100 µM, the TGI (SW-620 colon) was over 100 µM and the TGI (RXF 393 renal) was 65.7 µM. It also gave a TGI (U251 CNS) of over 100 µM, a TGI (BT-549 breast) of over 100 µM and a TGI (HCC-2998 colon) of over 100 µM. The TGI (RPMI-8226 leukemia) was over 100 µM and the TGI (EKVX NSCLC) was over 100 µM.
`CC(CO)(CO)N=Cc1cc(I)cc(I)c1O` was tested, and the TGI (COLO 205 colon) was 35.3 µM, the TGI (CCRF-CEM leukemia) was 44.5 µM and the TGI (OVCAR-8 ovarian) was 48.5 µM. It also gave a TGI (UACC-62 melanoma) of 30.7 µM, a TGI (SF-539 CNS) of 31.3 µM and a TGI (SN12C renal) of 31.4 µM. The TGI (SF-295 CNS) was 47.3 µM, the TGI (NCI-H23 lung) was 58.7 µM and the TGI (SK-MEL-2 melanoma) was 27.4 µM. For the same compound, the TGI (MALME-3M melanoma) was 28.5 µM, the TGI (HL-60(TB) leukemia) was 29.6 µM and the TGI (MDA-MB-231 breast) was 38.7 µM. It also gave a TGI (MCF7 breast) of 46.3 µM, a TGI (786-0 renal) of 30.9 µM and a TGI (SK-MEL-28 melanoma) of 38.7 µM. The TGI (MOLT-4 leukemia) was 47.5 µM, the TGI (KM12 colon) was 28.2 µM and the TGI (NCI-H226 lung) was 34.7 µM. For the same compound, the TGI (HT29 colon) was 44.6 µM, the TGI (TK-10 renal) was 84.2 µM and the TGI (SR leukemia) was 54.1 µM. It also gave a TGI (NCI-H522 lung) of 49.4 µM, a TGI (MDA-MB-435) of 40.3 µM and a TGI (M14 melanoma) of 39.3 µM. It also gave a TGI (NCI-H460 lung) of 55 µM, a TGI (UACC-257 melanoma) of 45.1 µM and a TGI (HCT-15 colon) of 34.8 µM. It also gave a TGI (SF-268 CNS) of 36.5 µM, a TGI (UO-31 renal) of 34.6 µM and a TGI (DU-145 prostate) of 29.8 µM. The TGI (ACHN renal) was 69.9 µM, the TGI (IGROV1 ovarian) was 33.3 µM and the TGI (T-47D breast) was over 100 µM. It also gave a TGI (OVCAR-5 ovarian) of 53.7 µM, a TGI (HOP-92 NSCLC) of 32.9 µM and a TGI (SNB-19 CNS) of 48.9 µM. For the same compound, the TGI (OVCAR-3 ovarian) was 29.2 µM, the TGI (A549 NSCLC) was over 100 µM and the TGI (A498 renal) was 65.4 µM. It also gave a TGI (HOP-62 NSCLC) of 25 µM, a TGI (K-562 leukemia) of 83.5 µM and a TGI (PC-3 prostate) of 32.1 µM. It also gave a TGI (SK-MEL-5 melanoma) of 28.5 µM, a TGI (LOX IMVI melanoma) of 24.2 µM and a TGI (HCT-116 colon) of 31.3 µM. The TGI (CAKI-1 renal) was 68.2 µM, the TGI (NCI/ADR-RES ovarian) was 63.2 µM and the TGI (OVCAR-4 ovarian) was 37.2 µM. The TGI (SNB-75 CNS) was 34.8 µM, the TGI (MDA-N) was 64.2 µM and the TGI (HS 578T breast) was 74 µM. For the same compound, the TGI (SW-620 colon) was 53 µM, the TGI (RXF 393 renal) was 26.5 µM and the TGI (U251 CNS) was 28.3 µM. It also gave a TGI (BT-549 breast) of 36.4 µM, a TGI (SK-OV-3 ovarian) of 41.9 µM and a TGI (RPMI-8226 leukemia) of over 100 µM. It also gave a TGI (EKVX NSCLC) of 54.2 µM.
